Read-outs that look alike come from different tables or passages of the source.
Assays:
[1] = system: long term estrogen deprived MCF7 breast cancer cells (LTED cells); test: Growth of long term estrogen deprived MCF7 cells, cell count analysis; type: cell-based; settings: for Cell number per well: LTED cells, count on Day 7, control 5.36
Method: In order to assess the potential of an estetrol component to inhibit the growth of estrogen deprived breast cancer cells, in vitro studies in long term estrogen deprived MCF7 breast cancer cells (LTED cells) were conducted. LTED cells are deprived of estrogen, making them a suitable in vitro model to study drug effects in women who have been using estrogen activity suppressors for a long time.
LTED cells were plated in 6-well plates at a density of 30,000 cells per well. The cells were maintained in phenol red free IMEM with 5% charcoal stripped FBS (DCC-FBS). On Day 3, the medium was replaced with fresh phenol red free IMEM with 5% DCC-FBS. The cells were then exposed to 6 different concentrations of estetrol ranging from 10^−12 M to 10^−7 M or to ethanol as vehicle control. The final vehicle concentration was 0.1% ethanol for all experiments. Each treatment was made in duplicate.
On Day 5, the medium was changed and on Day 7 plates were subjected to a cell count analysis.

[2] = Plasma levels and tolerability of estetrol after daily oral administration in female patients; type: in vivo, human; settings: for Trough plasma level: average of Day 7 and Day 14; for Cmax: human, plasma, read-out: Cmax plasma level
Method: For each group dosed at 2, 10, 20 and 40 mg estetrol daily (oral administration), 9 to 10 female patients were tested for their plasma content in estetrol at Day 7 and at Day 14. For each dose group, the average trough level of all patients across both days was calculated.

[3] = system: ER+ locally advanced and/or metastatic breast cancer; test: Phase I/IIa dose-escalation study of E4 in advanced breast cancer (patient of Example 4); type: in vivo, human; settings: 20 mg E4 per day oral, 12 weeks
Method: An open-label, phase I/11a trial, dose-escalation study with a 3+3 cohort design is carried out to determine the recommended dose of E4 for the treatment of patients with advanced breast cancer. After completing the phase I part of the study (i.e. 4 weeks of treatment), patients receive further treatment for 8 weeks at their individual phase I dose level (phase IIa part of the study). Patients are treated for 12 weeks. Treatment continues after 12 weeks of treatment until the patient is withdrawn from the study either due to unacceptable adverse events (AEs) or disease progression. These patients are followed up according to clinical practice including radiological tumour assessments.
In total at least 9 patients with ER+ locally advanced and/or metastatic breast cancer having exhausted all treatment options are enrolled in the study. Patients are at least 5 years postmenopausal and have failed anti-estrogen treatment with tamoxifen and aromatase inhibitor because the cancer has become resistant to treatment with tamoxifen or aromatase inhibitor, or because the patient has discontinued treatment due to unacceptable side-effects. No treatment with fulvestrant is allowed within 6 months prior to the start of the E4 treatment.
• to assess quality of life in advanced breast cancer patients treated with E4, using specific questions on estrogen deficiency symptoms; • to assess preliminary anti-tumour response of E4 in patients with advanced breast cancer, according to RECIST 1.1 at the end of the study (i.e. after 12 weeks); • to assess the trough (Cmin) levels of E4 in patients with advanced breast cancer, by measuring E4 plasma concentrations before dosing at different time points during the study.
• to evaluate the safety profile of E4 in patients with advanced breast cancer by: • Performing routine laboratory parameters; • Performing physical examination; • Measuring vital signs; • Measuring electrocardiograms (ECGs); • Recording and monitoring of incidence and severity of clinical AEs and SAEs; • Radiological tumour assessments.
After completing the phase I part of the study (i.e. 4 weeks of treatment), patients receive further treatment for 8 weeks at their individual phase I dose level (phase IIa part of the study). The phase IIa part of the study includes explorative efficacy assessments to evaluate potential anti-tumour effects of E4 by RECIST criteria based on evaluation of pre- and end of treatment imaging.
Treatment is escalated in doses of 20 mg, 40 mg and 60 mg E4 across cohorts according to the 3+3 design until the non-tolerable dose is determined or the maximum anticipated dose (MAD) of 60 mg is reached. Patients are treated once daily with an oral administration of E4. […]

SHBG = biological target: T1, SHBG (Homo sapiens, UniProt P04278); settings: cited from earlier work
T1 sequence (P04278 30-402): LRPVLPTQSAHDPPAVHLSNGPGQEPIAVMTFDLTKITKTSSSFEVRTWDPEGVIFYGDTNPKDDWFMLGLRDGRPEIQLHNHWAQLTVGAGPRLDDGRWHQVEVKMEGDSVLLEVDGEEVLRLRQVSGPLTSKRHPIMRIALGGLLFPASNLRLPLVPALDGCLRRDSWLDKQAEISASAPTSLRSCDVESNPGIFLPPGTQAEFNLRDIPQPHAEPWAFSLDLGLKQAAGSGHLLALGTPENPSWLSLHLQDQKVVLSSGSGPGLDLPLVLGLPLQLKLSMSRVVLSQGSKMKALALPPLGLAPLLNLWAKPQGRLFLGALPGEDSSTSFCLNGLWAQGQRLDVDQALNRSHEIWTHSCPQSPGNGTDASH

C[C@]12CC[C@@H]3c4ccc(O)cc4CC[C@H]3[C@@H]1[C@@H](O)[C@@H](O)[C@@H]2O [estetrol, estra-1,3,5(10)-triene-3,15α,16α,17β-tetrol]
Cell number per well ([1]; 10^−7 M estetrol): 0.49 ×10^5
Cell number per well ([1]; 10^−8 M estetrol): 0.59 ×10^5
Cell number per well ([1]; 10^−9 M estetrol): 0.56 ×10^5
Cell number per well ([1]; 10^−10 M estetrol): 0.63 ×10^5
Cell number per well ([1]; 10^−11 M estetrol): 3.62 ×10^5
Cell number per well ([1]; 10^−12 M estetrol): 5.58 ×10^5
Inhibition of growth of LTED cells ([1]; 10^−12 M to 10^−7 M): able to inhibit the growth of LTED cells
Concentration at which peak inhibition of LTED cell growth is observed ([1]; no further inhibition at higher concentrations): 10^−10 M
Trough plasma level ([2]; 2 mg daily oral dose): 240 pg/mL
Cmax plasma level ([2]; 10 mg daily oral dose): 9,500 pg/mL
Trough plasma level ([2]; 20 mg daily oral dose): 1,950 pg/mL
Trough plasma level ([2]; 40 mg daily oral dose): 5,070 pg/mL
Tolerability ([2]; 2, 10, 20 and 40 mg daily oral): well tolerated
Cmax ([2]; 2 mg daily oral dose): 1.3 ng/mL
Cmax ([2]; 20 mg daily oral dose): 23.5 ng/mL
Cmax ([2]; 40 mg daily oral dose): 82.7 ng/mL
Effect on quality of life (QOL) [3]: advantageous effect
Adverse event considered related to treatment ([3]; only one related AE, patient): breast tenderness with mild intensity
Tolerability of treatment ([3]; patient): tolerated the treatment very well
Tumour burden during treatment ([3]; progressive disease at start): remained stable
Binding to SHBG (SHBG): does not bind to SHBG

C[C@]12CC[C@@H]3c4ccc(O)cc4CC[C@H]3[C@@H]1CC[C@@H]2O [estradiol, 17beta-estradiol, reference compound]
Binding to SHBG (affinity) (SHBG; Hammond G L et al., Climacteric 2008): about 40%
